We go through 4 compounds from patent EP2292237A1, “Sigma ligands for the prevention or treatment of pain induced by chemotherapy” (Laboratorios del. Dr. Esteve, S.A., priority 2009, dated 2011).

Data set [1] deals with CD-1 mice. Description: Acetone test: development of paclitaxel-induced cold allodynia, co-administration with paclitaxel or paclitaxel vehicle. The format is in vivo. The note with it: for duration of acetone-induced paw licking/biting: 64 mg/kg s.c. 30 min before each i.p. paclitaxel dose (2 mg/kg), versus paclitaxel + saline; for duration of acetone-induced paw licking/biting / days with statistically significant differences in duration of acetone-induced licking/biting versus paclitaxel + saline: days 1 to 5; for days with statistically significant differences in duration of acetone-induced licking/biting versus paclitaxel + saline: 64 mg/kg s.c. 30 min before each i.p. paclitaxel dose, days after the first dose of paclitaxel; for response of the animals to acetone (duration of hind paw licking/biting): co-administration days 1 to 5 of paclitaxel-vehicle i.p. and compound 64 mg/kg s.c., versus paclitaxel-vehicle + saline, hydrochloride, 64 mg/kg; for development of cold allodynia induced by paclitaxel: co-administration of paclitaxel (2 mg/kg, i.p.) and compound (64 mg/kg, s.c.).

For data set [2], the system named is CD-1 mice. The data set can be described thus: Acetone test: expression of paclitaxel-induced cold allodynia, single s.c. injection on day 10. The note with it: for expression of cold allodynia induced by paclitaxel: acute treatment 32-64 mg/kg s.c. on day 10 in mice pretreated with paclitaxel; for response to acetone of control (paclitaxel-vehicle treated) animals: acute treatment 32 or 64 mg/kg s.c. on day 10; for duration of hind paw licking/biting (acetone test) versus saline: single s.c. injection 64 mg/kg in mice pretreated with paclitaxel-vehicle (Figs. 7 and 8). The format is in vivo. How it is done:
Experiments were performed in CD-1 mice (Charles River, U.S.A.) with at least n = 10/experimental group. Mice weighing 25-30 g were used. The animals were housed in colony cages with free access to food and water prior to the experiments. They were maintained in temperature- and light-controlled rooms (22 ± 1 °C, lights on at 08.00 h and off at 20.00 h, air replacement every 20 min). Testing took place during the light phase (from 9.00 h to 15.00 h).
Therefore, the cumulative dose was 10 mg/kg per mouse.
Compounds 1a and 1b were dissolved in normal saline just before administration and applied at doses of 32 or 64 mg/kg subcutaneously.
The response of the animals to the different nociceptive stimuli was tested subsequently during 2-4 weeks, depending on the test (see below), without any additional treatment. Each animal was tested only in one nociceptive model. […] Each animal received only one dose of compound 1 a or 1b and was tested in only one nociceptive model.
Procedure for assessment of cold allodynia. Cold allodynia was tested as previously described by Smith et al. in Life Sci., 2004, 74(21), 2593-604, by gently touching the plantar skin of the hind paws with an acetone bubble formed with a syringe connected to a thin polyethylene tube. The mice were housed and habituated for 30 min in transparent plastic boxes (7 x 7 x 13 cm) with a floor made of wire mesh. After the adaptation period, acetone was applied alternately three times to each paw at intervals of 30 s, and the duration and frequency of licking or biting were recorded. A small mirror was placed behind the chambers to allow clear observation of the paws. The time spent licking or biting the paw was recorded by a stopwatch and represented as the cumulative time of licking/biting in the six measurements. Since licking persisting more than 10 s in the experiments was very unusual, a cut-off time of 10 s was used for each trial. […]
On that day, duration of hind paw licking/biting was recorded immediately before (time 0) and at several times (60, 120 and 180 min) after the injection of compound 1 a, compound 1 b or saline.
On that day, duration of hind paw licking/biting was recorded immediately before (time 0) and at several times (60, 120 and 180 min) after the injection of compound 1a, compound 1b or saline.

For the next data set, the system named is patients. The note with it: cited from earlier work.

Entries after “also recorded” stand apart in the source; their conditions may differ. Like-named read-outs stand apart in the source and are kept apart here.

With `Cl.c1ccc(-n2ncc3c2CCC[C@H]3CCN2CCOCC2)cc1` [compound 1a, (S)-4,5,6,7-tetrahydro-4-(2-(morpholin-4-yl)ethyl)-1-phenyl-1H-indazole hydrochloride], in the data set with CD-1 mice [1], the “duration of acetone-induced paw licking/biting” value is recorded as “reduced”, the “days with statistically significant differences in duration of acetone-induced licking/biting versus paclitaxel + saline” value is given as “from day 7 to day 21”, the “response of the animals to acetone (duration of hind paw licking/biting)” value is “did not significantly modify; also recorded: No statistically significant differences” and the “development of cold allodynia induced by paclitaxel” value is recorded as “inhibited”. In the data set on CD-1 mice [2] (acute treatment 32-64 mg/kg s.c. on day 10, time after administration of the drug), the “times at which the effect was statistically significant in comparison with the saline-treated group” value was “at all times evaluated from 60 to 180 min”. Also, the “expression of cold allodynia induced by paclitaxel” value with CD-1 mice [2] (hydrochloride) is on record as “dose-dependently inhibited”. Further, in the data set with CD-1 mice [2], the “response to acetone of control (paclitaxel-vehicle treated) animals” value is reported as “did not affect” and the “duration of hind paw licking/biting (acetone test) versus saline” value is listed as “No statistically significant differences”.
Consider `Cl.c1ccc(-n2ncc3c2CCC[C@@H]3CCN2CCOCC2)cc1` [compound 1b, (R)-4,5,6,7-tetrahydro-4-(2-(morpholin-4-yl)ethyl)-1-phenyl-1H-indazole hydrochloride], for which, in the data set on CD-1 mice [1], the “duration of acetone-induced paw licking/biting” value is “reduced”; the “days with statistically significant differences in duration of acetone-induced licking/biting versus paclitaxel + saline” value was “at days 7, 14 and 21”; the “response of the animals to acetone (duration of hind paw licking/biting)” value was “did not significantly modify; also recorded: No statistically significant differences”; the “development of cold allodynia induced by paclitaxel” value was “inhibited”. Moreover, in the data set on CD-1 mice [2], the “expression of cold allodynia induced by paclitaxel” value is listed as “inhibited”, the “response to acetone of control (paclitaxel-vehicle treated) animals” value is “did not affect” and the “duration of hind paw licking/biting (acetone test) versus saline” value is listed as “No statistically significant differences”.
As to `O=C(O)C(=O)O.c1ccc(-n2ncc3c2CCCC3CCN2CCOCC2)cc1` (stereo not shown) [compound 2, 4,5,6,7-tetrahydro-4-(2-(morpholin-4-yl)ethyl)-1-phenyl-1H-indazole oxalate], in the data set with CD-1 mice [2] (acute injection 32-64 mg/kg s.c., 10 days after the first dose of paclitaxel), the “duration of acetone-induced licking/biting” value is recorded as “dose-dependently reduced”.
With `CC(=O)O[C@H]1C(=O)[C@@]2(C)[C@H]([C@H](OC(=O)c3ccccc3)[C@]3(O)C[C@H](OC(=O)[C@H](O)[C@@H](NC(=O)c4ccccc4)c4ccccc4)C(C)=C1C3(C)C)[C@]1(OC(C)=O)CO[C@@H]1C[C@@H]2O` [paclitaxel, Paclitaxel, reference compound], in the data set with CD-1 mice [1] (paclitaxel (i.p., 2 mg/kg) and saline (s.c.) co-administered days 1 to 5, began on day 7, maximum on day 14), the “duration of paw licking/biting in the acetone test” value was “significant increase”. Also, the “control animals treated with paclitaxel that did not show cold allodynia” value in the data set on CD-1 mice [2] ('non-responders': less than 2 s licking/biting on days 7 and 10 after paclitaxel) is “Around 33%”. The “cold allodynia (increase in the duration of acetone-induced paw licking/biting)” value with CD-1 mice [2] (paclitaxel i.p. once daily days 1 to 5, evaluated 10 days after the first dose) was “developed cold allodynia”. The “progressing to dose-limiting neurotoxicity in % of patients” value in the data set on patients (paclitaxel dose 135 mg/m^2) is reported as 0%; in the data set on patients (paclitaxel dose 175 mg/m^2) it was 21%; in the data set with patients (paclitaxel dose 250-300 mg/m^2), 71%.
